Data taken from PubChem BioAssay (NCI).
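1) Cells in 96-well plates. 2) Compound, 48 h, 5 concentrations. 3) Linear interpolation between surrounding doses. 4) Unreached endpoint = highest concentration. TGI: concentration producing complete growth inhibition.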

Tests used:
Experiment in all cases: NCI anticancer screen, dose series, 48 h
SK-MEL-5 melanoma = tested on: SK-MEL-5 melanoma
TK-10 renal = tested on: TK-10 renal
OVCAR-5 ovarian = tested on: OVCAR-5 ovarian
SNB-19 CNS = tested on: SNB-19 CNS
SNB-78 CNS = tested on: SNB-78 CNS
SN12C renal = tested on: SN12C renal
SNB-75 CNS = tested on: SNB-75 CNS
DMS 273 small cell lung = tested on: DMS 273 small cell lung
RPMI-8226 leukemia = tested on: RPMI-8226 leukemia
HCC-2998 colon = tested on: HCC-2998 colon
LOX IMVI melanoma = tested on: LOX IMVI melanoma
UO-31 renal = tested on: UO-31 renal
HOP-18 NSCLC = tested on: HOP-18 NSCLC
M14 melanoma = tested on: M14 melanoma
SR leukemia = tested on: SR leukemia
ACHN renal = tested on: ACHN renal
OVCAR-4 ovarian = tested on: OVCAR-4 ovarian
UACC-257 melanoma = tested on: UACC-257 melanoma
MALME-3M melanoma = tested on: MALME-3M melanoma
EKVX NSCLC = tested on: EKVX NSCLC
DMS 114 small cell lung = tested on: DMS 114 small cell lung
XF 498 CNS = tested on: XF 498 CNS
HOP-92 NSCLC = tested on: HOP-92 NSCLC
SW-620 colon = tested on: SW-620 colon
U251 CNS = tested on: U251 CNS
KM20L2 colon = tested on: KM20L2 colon
HL-60(TB) leukemia = tested on: HL-60(TB) leukemia
NCI-H23 lung = tested on: NCI-H23 lung
NCI-H460 lung = tested on: NCI-H460 lung
SF-539 CNS = tested on: SF-539 CNS
KM12 colon = tested on: KM12 colon
OVCAR-3 ovarian = tested on: OVCAR-3 ovarian
A549 NSCLC = tested on: A549 NSCLC
NCI-H226 lung = tested on: NCI-H226 lung
M19-MEL melanoma = tested on: M19-MEL melanoma
A498 renal = tested on: A498 renal
CCRF-CEM leukemia = tested on: CCRF-CEM leukemia
K-562 leukemia = tested on: K-562 leukemia
OVCAR-8 ovarian = tested on: OVCAR-8 ovarian
CAKI-1 renal = tested on: CAKI-1 renal
MOLT-4 leukemia = tested on: MOLT-4 leukemia
HT29 colon = tested on: HT29 colon
786-0 renal = tested on: 786-0 renal
HCT-116 colon = tested on: HCT-116 colon
HCT-15 colon = tested on: HCT-15 colon
DLD-1 colon = tested on: DLD-1 colon
SF-295 CNS = tested on: SF-295 CNS
LXFL 529 NSCLC = tested on: LXFL 529 NSCLC
RXF 393 renal = tested on: RXF 393 renal
UACC-62 melanoma = tested on: UACC-62 melanoma
SK-MEL-2 melanoma = tested on: SK-MEL-2 melanoma
SK-MEL-28 melanoma = tested on: SK-MEL-28 melanoma
NCI-H522 lung = tested on: NCI-H522 lung
SF-268 CNS = tested on: SF-268 CNS
COLO 205 colon = tested on: COLO 205 colon
IGROV1 ovarian = tested on: IGROV1 ovarian
SK-OV-3 ovarian = tested on: SK-OV-3 ovarian
HOP-62 NSCLC = tested on: HOP-62 NSCLC

CN(C)C=C1C(=O)N(C)C(=O)N(C)C1=O
TGI (SK-MEL-5 melanoma): > 100 µM | TGI (TK-10 renal): > 100 µM | TGI (OVCAR-5 ovarian): > 100 µM | TGI (SNB-19 CNS): > 100 µM | TGI (SNB-78 CNS): > 100 µM | TGI (SN12C renal): > 100 µM | TGI (SNB-75 CNS): > 100 µM | TGI (DMS 273 small cell lung): > 100 µM | TGI (RPMI-8226 leukemia): > 100 µM | TGI (HCC-2998 colon): > 100 µM | TGI (LOX IMVI melanoma): > 100 µM | TGI (UO-31 renal): > 100 µM | TGI (HOP-18 NSCLC): > 100 µM | TGI (M14 melanoma): > 100 µM | TGI (SR leukemia): > 100 µM | TGI (ACHN renal): > 100 µM | TGI (OVCAR-4 ovarian): > 100 µM | TGI (UACC-257 melanoma): > 100 µM | TGI (MALME-3M melanoma): > 100 µM | TGI (EKVX NSCLC): > 100 µM | TGI (DMS 114 small cell lung): > 100 µM | TGI (XF 498 CNS): > 100 µM | TGI (HOP-92 NSCLC): > 100 µM | TGI (SW-620 colon): > 100 µM | TGI (U251 CNS): > 100 µM | TGI (KM20L2 colon): > 100 µM | TGI (HL-60(TB) leukemia): > 100 µM | TGI (NCI-H23 lung): > 100 µM | TGI (NCI-H460 lung): > 100 µM | TGI (SF-539 CNS): > 100 µM | TGI (KM12 colon): > 100 µM | TGI (OVCAR-3 ovarian): > 100 µM | TGI (A549 NSCLC): > 100 µM | TGI (NCI-H226 lung): > 100 µM | TGI (M19-MEL melanoma): > 100 µM | TGI (A498 renal): > 100 µM | TGI (CCRF-CEM leukemia): > 100 µM | TGI (K-562 leukemia): > 100 µM | TGI (OVCAR-8 ovarian): > 100 µM | TGI (CAKI-1 renal): > 100 µM | TGI (MOLT-4 leukemia): > 100 µM | TGI (HT29 colon): > 100 µM | TGI (786-0 renal): > 100 µM | TGI (HCT-116 colon): > 100 µM | TGI (HCT-15 colon): > 100 µM | TGI (DLD-1 colon): > 100 µM | TGI (SF-295 CNS): > 100 µM | TGI (LXFL 529 NSCLC): > 100 µM | TGI (RXF 393 renal): > 100 µM | TGI (UACC-62 melanoma): > 100 µM | TGI (SK-MEL-2 melanoma): > 100 µM | TGI (SK-MEL-28 melanoma): > 100 µM

COc1ccc(/C=C/C(=O)C(C)C)cc1
TGI (SK-MEL-5 melanoma): > 100 µM | TGI (NCI-H522 lung): 41.7 µM | TGI (TK-10 renal): > 100 µM | TGI (OVCAR-5 ovarian): > 100 µM | TGI (SNB-19 CNS): > 100 µM | TGI (SNB-78 CNS): 46.7 µM | TGI (SN12C renal): > 100 µM | TGI (SNB-75 CNS): > 100 µM | TGI (DMS 273 small cell lung): > 100 µM | TGI (HCC-2998 colon): > 100 µM | TGI (LOX IMVI melanoma): > 100 µM | TGI (UO-31 renal): > 100 µM | TGI (SF-268 CNS): > 100 µM | TGI (HOP-18 NSCLC): > 100 µM | TGI (M14 melanoma): > 100 µM | TGI (SR leukemia): > 100 µM | TGI (ACHN renal): > 100 µM | TGI (OVCAR-4 ovarian): > 100 µM | TGI (UACC-257 melanoma): > 100 µM | TGI (MALME-3M melanoma): > 100 µM | TGI (EKVX NSCLC): > 100 µM | TGI (COLO 205 colon): > 100 µM | TGI (DMS 114 small cell lung): 43 µM | TGI (IGROV1 ovarian): > 100 µM | TGI (XF 498 CNS): > 100 µM | TGI (HOP-92 NSCLC): > 100 µM | TGI (SW-620 colon): > 100 µM | TGI (U251 CNS): > 100 µM | TGI (KM20L2 colon): 64.3 µM | TGI (HL-60(TB) leukemia): 59.2 µM | TGI (NCI-H23 lung): > 100 µM | TGI (NCI-H460 lung): > 100 µM | TGI (SF-539 CNS): > 100 µM | TGI (KM12 colon): 98 µM | TGI (OVCAR-3 ovarian): 61.4 µM | TGI (A549 NSCLC): > 100 µM | TGI (M19-MEL melanoma): > 100 µM | TGI (A498 renal): > 100 µM | TGI (CCRF-CEM leukemia): > 100 µM | TGI (K-562 leukemia): > 100 µM | TGI (OVCAR-8 ovarian): > 100 µM | TGI (CAKI-1 renal): > 100 µM | TGI (MOLT-4 leukemia): > 100 µM | TGI (HT29 colon): 79.6 µM | TGI (SK-OV-3 ovarian): 90.6 µM | TGI (786-0 renal): > 100 µM | TGI (HCT-116 colon): > 100 µM | TGI (HCT-15 colon): > 100 µM | TGI (DLD-1 colon): > 100 µM | TGI (SF-295 CNS): > 100 µM | TGI (LXFL 529 NSCLC): 54.9 µM | TGI (UACC-62 melanoma): > 100 µM | TGI (SK-MEL-2 melanoma): 73.8 µM | TGI (SK-MEL-28 melanoma): > 100 µM | TGI (HOP-62 NSCLC): > 100 µM
